Experimental data published in patent US5616573A, “Glucocorticoids” (Schering Aktiengesellschaft, priority 1993, dated 1997).
Where a SMILES comes first, the peptide text is derived from it. The star is where a group is joined. X5 = C[C@]12CCC(=O)C=C1CC[C@@H]1[C@@H]2[C@@H](O)C[C@@]2(C)[C@H]1CC[C@]2(O)C(=O)CO*; Fmoc = O=C(OCC1c2ccccc2-c2ccccc21)*

Target: T1, rat glucocorticoid receptor (Rattus norvegicus, UniProt P06536)
T1 sequence (P06536 1-795): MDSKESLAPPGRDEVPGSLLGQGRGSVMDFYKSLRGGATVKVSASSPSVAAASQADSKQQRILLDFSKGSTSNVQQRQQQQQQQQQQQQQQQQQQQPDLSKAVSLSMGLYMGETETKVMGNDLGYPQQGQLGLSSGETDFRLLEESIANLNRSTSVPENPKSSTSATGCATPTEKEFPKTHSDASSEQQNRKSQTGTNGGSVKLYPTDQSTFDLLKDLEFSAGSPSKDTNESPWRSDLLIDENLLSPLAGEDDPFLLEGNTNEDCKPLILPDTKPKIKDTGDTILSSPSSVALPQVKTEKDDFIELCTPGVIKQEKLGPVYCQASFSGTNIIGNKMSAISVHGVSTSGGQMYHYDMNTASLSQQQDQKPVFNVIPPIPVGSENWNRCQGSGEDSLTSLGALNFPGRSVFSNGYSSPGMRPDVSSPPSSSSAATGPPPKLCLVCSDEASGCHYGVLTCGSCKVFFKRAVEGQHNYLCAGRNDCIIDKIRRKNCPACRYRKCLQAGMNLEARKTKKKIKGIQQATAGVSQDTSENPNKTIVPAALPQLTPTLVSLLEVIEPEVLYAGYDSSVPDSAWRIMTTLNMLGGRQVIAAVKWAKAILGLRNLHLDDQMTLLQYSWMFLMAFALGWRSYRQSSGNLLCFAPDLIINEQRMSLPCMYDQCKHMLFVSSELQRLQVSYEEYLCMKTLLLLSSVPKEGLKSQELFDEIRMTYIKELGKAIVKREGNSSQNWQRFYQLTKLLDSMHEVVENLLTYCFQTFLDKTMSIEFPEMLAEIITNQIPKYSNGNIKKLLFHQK
Assay: Binding to the Glucocorticoid Receptor: competitive displacement of tritiated dexamethasone in rat thymus cytosol
Details: quotient of concentrations of test substance and dexamethasone displacing 50% of labeled dexamethasone; 2 hours at 4° C.; lower KF = better binding
Experimental: The binding of the substances according to the invention to the rat glucocorticoid receptor is determined by competitive displacement of tritiated dexamethasone from the receptor binding. Different concentrations of the glucocorticoid esters are incubated for 2 hours at 4° C. in the presence of a constant concentration of tritium-labeled dexamethasone with rat thymus cytosol. After the incubation time, the non-protein-bound steroids are adsorbed on activated carbon and the activated carbon is centrifuged off. The radioactivity in the supernatant is used as a measurement for the amount of receptor-bound dexamethasone.
From the measurements, the concentrations of the respective corticoid derivative are calculated, which are necessary to displace 50% of the labeled dexamethasone from the receptor binding. Competition factor (KF) is the quotient of these calculated concentrations for the test substance and that of dexamethasone.

`CC(C)[C@H](NC(=O)[C@@H]1CCCN1C(=O)[C@H](C)NC(=O)[C@H](C)NC(=O)OCC1c2ccccc2-c2ccccc21)C(=O)OCC(=O)[C@@]1(O)CC[C@H]2[C@@H]3CCC4=CC(=O)CC[C@]4(C)[C@H]3[C@@H](O)C[C@@]21C` [Example 29, N-(N-(N-(N-(9H-Fluoren-9-yl-methoxycarbonyl)-L-alanyl)-L-alanyl) -L-prolyl)-L-valine [11β,17,21-trihydroxy-3,20-dioxo-pregn-4-en-21-yl] ester] (Fmoc-AAPV-X5) was tested, and the “Competition Factor [KF]” value was “k.k. [n.c.]”.
